Key:
[1] = Disposition rate constant in subject at 5.21 mg/kg, po by gas chromatography; assay type: ADME, organism-based; details: female, human, in vivo
[2] = Disposition rate constant in subject at 4.33 mg/kg, po by gas chromatography; assay type: ADME, organism-based; details: male, human, in vivo
Homo sapiens [3] = assay: Disposition rate constant in newborn infants (2 patients) at 12 mg/kg, im by gas chromatography; assay type: ADME, organism-based; details: in vivo
[4] = Disposition rate constant in newborn infants at 20.6 mg/kg, po by gas chromatography; assay type: ADME, organism-based; details: human, in vivo
[5] = Disposition rate constant in newborn infants at 11.4 mg/kg, im by gas chromatography; assay type: ADME, organism-based; details: human, in vivo
[6] = Half life in subject at 5.21 mg/kg, po by gas chromatography; assay type: ADME, organism-based; details: female, human, in vivo
[7] = Half life in subject at 4.33 mg/kg, po by gas chromatography; assay type: ADME, organism-based; details: male, human, in vivo
Homo sapiens [8] = assay: Half life in newborn infants (2 patients) at 12 mg/kg, im by gas chromatography; assay type: ADME, organism-based; details: in vivo
[9] = Half life in newborn infants at 20.6 mg/kg, po by gas chromatography; assay type: ADME, organism-based; details: human, in vivo
[10] = Half life in newborn infants at 11.4 mg/kg, im by gas chromatography; assay type: ADME, organism-based; details: human, in vivo
Homo sapiens [11] = assay: Apparent drug level in subject at 5.21 mg/kg, po measured at time zero by gas chromatography; assay type: ADME, organism-based; details: in vivo
Homo sapiens [12] = assay: Apparent drug level in subject at 4.33 mg/kg, po measured at time zero by gas chromatography; assay type: ADME, organism-based; details: in vivo
Homo sapiens [13] = assay: Apparent drug level in newborn infants (2 patients) at 12 mg/kg, im measured at time zero by gas chromatography; assay type: ADME, organism-based; details: in vivo
Homo sapiens [14] = assay: Apparent drug level in newborn infants at 20.6 mg/kg, po measured at time zero by gas chromatography; assay type: ADME, organism-based; details: in vivo
Homo sapiens [15] = assay: Apparent drug level in newborn infants at 11.4 mg/kg, po measured at time zero by gas chromatography; assay type: ADME, organism-based; details: in vivo
Homo sapiens [16] = assay: Apparent volume of distribution in subject at 5.21 mg/kg, po by gas chromatography; assay type: ADME, organism-based; details: in vivo
Homo sapiens [17] = assay: Apparent volume of distribution in male subject at 4.33 mg/kg, po by gas chromatography; assay type: ADME, organism-based; details: in vivo
Homo sapiens [18] = assay: Apparent volume of distribution in newborn infants (2 patients) at 12 mg/kg, im by gas chromatography; assay type: ADME, organism-based; details: in vivo
Homo sapiens [19] = assay: Apparent volume of distribution in newborn infants at 20.6 mg/kg, po by gas chromatography; assay type: ADME, organism-based; details: in vivo
Homo sapiens [20] = assay: Apparent volume of distribution in newborn infants at 11.4 mg/kg, im by gas chromatography; assay type: ADME, organism-based; details: in vivo
[21] = Plasma concentration in subject at 5.21 mg/kg, po measured after 17 days by gas chromatography; assay type: ADME, organism-based; details: female, human
[22] = Drug excretion in subject assessed as phenobarbital, p-hydroxyphenobarbital and conjugated p-hydroxyphenobarbital level in urine at 5.21 mg/kg, po measured during first 2 weeks by gas chromatography; assay type: ADME, organism-based; details: human, in vivo, 336 h
[23] = Drug excretion in subject assessed as phenobarbital, p-hydroxyphenobarbital and conjugated p-hydroxyphenobarbital level in urine at 4.33 mg/kg, po measured during first 2 weeks by gas chromatography; assay type: ADME, organism-based; details: human, in vivo, 336 h
[24] = Drug excretion in subject assessed as phenobarbital, p-hydroxyphenobarbital and conjugated p-hydroxyphenobarbital level in urine at 5.21 mg/kg, po measured during 4 week period by gas chromatography; assay type: ADME, organism-based; details: human, in vivo, 672 h
[25] = Drug excretion in po dosed adult (2 subjects) assessed as unchanged compound level in urine at measured during first 8 days by gas chromatography; assay type: ADME, organism-based; details: human, read-out: Drug excretion
[26] = Drug excretion in newborn infants (4 patients) assessed as unchanged compound level in urine at measured during first 8 days by gas chromatography; assay type: ADME; details: human, read-out: Drug excretion
[27] = Drug excretion in newborn infants (4 patients) assessed as p-hydroxy phenobarbital level in urine at measured during first 8 days by gas chromatography; assay type: ADME, tissue-based; details: human, in vivo, 192 h

Question: Which results are given for `CCC1(c2ccccc2)C(=O)NC(=O)NC1=O` [PHENOBARBITAL]?
Answer: k el [1]: 1.64e-06 s⁻¹; k el [2]: 2.28e-06 s⁻¹; K (Homo sapiens [3]): 0.004 h⁻¹; k el [4]: 2.33e-06 s⁻¹; k el [5]: 1.61e-06 s⁻¹; half-life [6]: 117 h; half-life [7]: 84 h; t1/2 (Homo sapiens [8]): 61 h; half-life [9]: 83 h; half-life [10]: 119 h; Drug uptake (Homo sapiens [11]): 10 µg/mL; Drug uptake (Homo sapiens [12]): 9.3 µg/mL; Drug uptake (Homo sapiens [13]): 18.1 µg/mL; Drug uptake (Homo sapiens [14]): 21 µg/mL; Drug uptake (Homo sapiens [15]): 17.8 µg/mL; Vd(app) (Homo sapiens [16]): 0.52 L/kg; Vd(app) (Homo sapiens [17]): 0.47 L/kg; Vd(app) (Homo sapiens [18]): 0.59 L/kg; Vd(app) (Homo sapiens [19]): 0.98 L/kg; Vd(app) (Homo sapiens [20]): 0.99 L/kg; concentration at 408 h [21]: 500 ng/mL; Drug excretion [22]: 65%; Drug excretion [23]: 35%; Drug excretion [24]: 75%; dose excreted at 192 h [25]: 16%; dose excreted at 192 h [26]: 17%; Drug excretion [27]: 10%
